Measurements as given in US12569510B2, “Antiviral prodrugs and pharmaceutical compositions thereof” (THE SCRIPPS RESEARCH INSTITUTE, priority 2019, dated 2026).
In brackets after ≈: the same amount, converted by molar mass. Read-outs that look alike come from different tables or passages of the source.

How the values were obtained:
[1] = Aqueous solubility (pH 7.4); format: physicochemical
[2] = Stability of aqueous suspension, 2 weeks at 40° C./75% relative humidity (XPRD); format: physicochemical; settings: aqueous 0.25% CMC-Na/0.5% TWEEN-80 suspension
Method: LC-MS (ESI+): m/z 502.41 [M+H]^+. About 275 mg/g of Compound 6 was suspended in aqueous 0.25% CMC-Na/0.5% TWEEN-80 (26 gauge syringeability) and was subjected to stability for 2 weeks at 40° C./75% relative humidity.

[3] = SC rat PK: EFdA plasma levels; settings: for Cmax compared with EFdA / duration of plasma levels of EFdA above lower limit of quantitation (LLOQ): single SC dose, 10 mg/kg EFdA equivalent, 4 mg/mL; for half life and mean residence life compared with EFdA: SC, 100 mg/kg EFdA equivalent
Method: (§1) • Animals: Animals (Male SD rats ˜200-250 g and Male rhesus macaques ˜2-3 kg) were obtained from an approved vendor (SLAC Laboratory Animal Co. Ltd., Shanghai, China and/or Topgene Biotechnology, Wuhan city, Hubei Province, China). • Acclimation/Quarantine: Following arrival, animals were assessed as to their general health by a member of the veterinary staff or other authorized personnel. Animals were acclimated for at least 3 days before being placed on study. • Animal Husbandry: Animals were group housed during acclimation and individually housed during the study. The animal room environment will be controlled (target conditions: temperature 18 to 26° C., relative humidity 30 to 70%, 12 hours artificial light and 12 hours dark). Temperature and relative humidity were monitored daily. • Animal Cannulation: No
(§2) Animals were fasted at least 12 hours prior to the administration. All animals had access to Certified Rodent and non-Rodent Diet (Catalog #M01-F, SLAC Laboratory Animal Cl. Ltd., Shanghai, China) ad libitum 4 hours post dosing.
Animals were dosed within four hours of suspension preparation. Two 20 μL aliquots of each prepared suspension were transferred into 1.5 mL of polypropylene microcentrifuge tubes and dose validation was run by LC/UV or LC-MS/MS.
The suspensions were administered via subcutaneous injection (SC) following facility standard operations procedures (SOPs).
Approximately 200 μL blood was collected from saphenous vein at each time point for rats and 0.5 mL for rhesus macaques. All blood samples were transferred into microcentrifuge tubes containing 4 μL of K2EDTA (0.5M) as anti-coagulant and placed on wet ice until processed for plasma.
Blood: Blood samples were processed for plasma by centrifugation at approximately 4° C., 3000 g 15 min within half an hour of collection. Plasma samples was stored in polypropylene tubes, quick frozen over dry ice and kept at −70±10° C. until LC/MS/MS analysis.
If the carryover couldn't meet the criteria, then the percent of carryover should be estimated following in-house bioanalytical SOP. 6. Data Analysis
Plasma concentration versus time data was analyzed by non-compartmental approaches using the Phoenix WinNonlin 6.3 software program. Cmax, Tmax, T1/2, AUC(0-t), AUC(0-inf), MRT(0-t), MRT(0-inf), % F and graphs of plasma concentration versus time profile were generated.
Several prodrugs including EFdA (1) as a control were subjected to a single dose rat PK studies via subcutaneous route of administration. All animals were injected with equivalent doses of 10 mg/kg and concentration of 4 mg/mL of EFdA as an aqueous suspension in 0.5% CMC-Na and 0.5% TWEEN-80.
After optimization, SC rat PK studies were performed again with high equivalent dose of 100 mg/kg at equivalent concentration of 120 mg/mL for Compound 3, 116 mg/mL for Compound 5, and 319 mg/mL of EFdA, respectively.

[4] = SC rhesus PK: EFdA plasma levels; settings: rhesus macaque, single SC dose, 50 mg/kg EFdA equivalent
Method: as §1, §2
Animals were dosed within four hours of suspension preparation. […]
Plasma concentration versus time data was analyzed by non-compartmental approaches using the Phoenix WinNonlin 6.3 software program. […]

[5] = Optimization of surfactant concentration in Compound 5 suspension (syringeability, viscosity, flow, resuspension); format: physicochemical; design: key to Flow: + No Flow; ++ Less Flow; +++ Good Flow; ++++ Very Good Flow; key to Viscosity: ++++ Slightly Viscous; +++ Viscous; ++ Very Viscous; + Semisolid; key to Syringeability (26 G): ✓: Syringeable; settings: 400 mg/gm Compound 5, after 10 days of storage
Method: The concentration of surfactant was optimized with 0.3% and 0.5% of methyl cellulose in a formation containing 400 mg/gm of micronized Compound 5. Formulations were prepared with different concentrations of TWEEN-80 (0.1, 0.2 and 0.3%).

[6] = aqueous medium at pH 7.4, pH 7.4, aqueous buffer, read-out: Aqueous solubility (pH 7.4)
[7] = 0.3% Methyl Cellulose, 0.1% TWEEN-80
[8] = 0.3% Methyl Cellulose, 0.2% TWEEN-80
[9] = 0.3% Methyl Cellulose, 0.3% TWEEN-80
[10] = 0.5% Methyl Cellulose, 0.1% TWEEN-80
[11] = 0.5% Methyl Cellulose, 0.2% TWEEN-80
[12] = 0.5% Methyl Cellulose, 0.3% TWEEN-80

C#C[C@]1(CO)O[C@@H](n2cnc3c(N)nc(F)nc32)C[C@@H]1O [Compound 1, 4′-Ethynyl-2-fluoro-2′-deoxyadenosine, reference compound]
solubility ([1]; aqueous medium at physiological pH, pH 7.4, aqueous buffer, read-out: aqueous solubility at physiological pH): 877 µg/mL (≈ 2990 µM)

C#C[C@]1(COC(=O)C(C)C)O[C@@H](n2cnc3c(N)nc(F)nc32)C[C@@H]1OC(=O)C(C)C [Compound 2, (2R,3S,5R)-5-(6-amino-2-fluoro-9H-purin-9-yl)-2-ethynyl-2-((isobutyryloxy)methyl)tetrahydrofuran-3-yl isobutyrate]
crystallinity in suspension (XPRD) [2]: retains good crystallinity in suspension
Cmax compared with EFdA [3]: much lower than for EFdA
duration of plasma levels of EFdA above lower limit of quantitation (LLOQ) [3]: more than a week

C#C[C@]1(COC(=O)C(CC)CC)O[C@@H](n2cnc3c(N)nc(F)nc32)C[C@@H]1OC(=O)C(CC)CC [Compound 3, (2R,3S,5R)-5-(6-amino-2-fluoro-9H-purin-9-yl)-2-(((2-ethylbutanoyl)oxy)methyl)-2-ethynyltetrahydrofuran-3-yl 2-ethylbutanoate]
half life and mean residence life compared with EFdA [3]: Enhanced half life and mean residence life
Cmax compared with EFdA [3]: much lower than for EFdA
duration of plasma levels of EFdA above lower limit of quantitation (LLOQ) [3]: more than a week

C#C[C@]1(COC(=O)C2CCCC2)O[C@@H](n2cnc3c(N)nc(F)nc32)C[C@@H]1OC(=O)C1CCCC1 [Compound 4, (2R,3S,5R)-5-(6-amino-2-fluoro-9H-purin-9-yl)-2-(((cyclopentanecarbonyl)oxy)methyl)-2-ethynyltetrahydrofuran-3-yl cyclopentanecarboxylate]
solubility [1, 6]: < 1 µg/mL

C#C[C@]1(COC(=O)Cc2ccccc2)O[C@@H](n2cnc3c(N)nc(F)nc32)C[C@@H]1OC(=O)Cc1ccccc1 [Compound 5, (2R,3S,5R)-5-(6-amino-2-fluoro-9H-purin-9-yl)-2-ethynyl-2-((2-phenylacetoxy)methyl)tetrahydrofuran-3-yl 2-phenylacetate]
half life and mean residence life compared with EFdA [3]: Enhanced half life and mean residence life
Cmax compared with EFdA [3]: much lower than for EFdA
duration of plasma levels of EFdA above lower limit of quantitation (LLOQ) [3]: more than a week
duration of plasma levels of EFdA above LLOQ [4]: more than a month
Flow [5, 7]: ++++
Syringeability (26 G) [5, 7]: ✓
Time Taken to Resuspend [5, 7]: 2.2 min
Viscosity [5, 7]: ++++
Flow [5, 8]: ++++
Syringeability (26 G) [5, 8]: ✓
Time Taken to Resuspend [5, 8]: 2.5 min
Viscosity [5, 8]: ++++
Flow [5, 9]: ++++
Syringeability (26 G) [5, 9]: ✓
Time Taken to Resuspend [5, 9]: 2.3 min
Viscosity [5, 9]: ++++
Flow [5, 10]: ++++
Syringeability (26 G) [5, 10]: ✓
Time Taken to Resuspend [5, 10]: 2.5 min
Viscosity [5, 10]: ++++
Flow [5, 11]: ++++
Syringeability (26 G) [5, 11]: ✓
Time Taken to Resuspend [5, 11]: 2.5 min
Viscosity [5, 11]: ++++
Flow [5, 12]: ++++
Syringeability (26 G) [5, 12]: ✓
Time Taken to Resuspend [5, 12]: 3.0 min
Viscosity [5, 12]: ++++

C#C[C@]1(COC(=O)c2ccccc2)O[C@@H](n2cnc3c(N)nc(F)nc32)C[C@@H]1OC(=O)c1ccccc1 [Compound 6, (2R,3S,5R)-5-(6-amino-2-fluoro-9H-purin-9-yl)-2-((benzoyloxy)methyl)-2-ethynyl tetrahydrofuran-3-yl benzoate]
solubility [1, 6]: < 2 µg/mL
crystallinity in suspension (XPRD) [2]: retains good crystallinity in suspension
